Assay results: publication PMC4156305, “Structure Driven Design of Novel Human Ether-A-Go-Go-Related-Gene Channel (hERG1) Activators” (PLoS ONE, 2014)

Biological target: T1, hERG1 (Homo sapiens, UniProt Q12809)
T1 construct: expressed in transfected cells; host or cells: HEK 293
Assay: Whole cell patch-clamp of hERG1 currents in transfected HEK 293 cells
Assay type: cell-based
Parameters: Inactivation ΔV0.3: unit not given here
Conditions: for Deactivation Δλ/λcon: deactivation time constant relative to baseline; for Activation V1/2 (mV): shift in voltage-dependence of activation; for Inactivation ΔV0.3: shift in voltage-dependence of inactivation; for Amplitude I/Icon: tail current relative to baseline
Experimental: Transfected HEK cells on glass cover slips were placed in a chamber mounted on a modified stage of an inverted microscope. The chamber was superfused at a rate of 2 mL/min with a normal external solution. The extracellular solution contained (in mM) NaCl 140, KCl 5.4, CaCl2 1, MgCl2 1, HEPES 5, glucose 5.5, pH 7.4, with NaOH. Micropipettes were pulled from borosilicate glass capillary tubes on a programmable horizontal puller (Sutter Instruments, Novato, CA). Standard patch-clamp methods were used to measure the whole cell currents of hERG1 mutants expressed in HEK 293 cells using the AXOPATCH 200B amplifier (Axon Instruments). Unless otherwise indicated, tail currents were recorded when the voltage was returned to −50 mV from +50 mV. Further details on electrophysiological methods are collected in Methods S1.
Electrophysiology Protocol:
The pipette solution contained the following (at mM concentration): KCl 10, K-aspartate 110, MgCl2 5, Na2ATP 5, EGTA 10, HEPES 5, and CaCl2 1. The solution was adjusted to pH 7.2 with KOH. The extracellular solution contained the following (at mM concentration): NaCl 140, KCl 5.4, CaCl2 1, MgCl2 1, HEPES 5, and glucose 5.5. The solution was adjusted to pH 7.4 with NaOH. For IKr measurements, the whole cell configuration of the patch clamp method was used. The series resistance was less than 7
MΩ. The data were sampled at 1 kHz. The holding potential was -80 mV. The activation of hERG tail currents was induced by depolarization to a range of potentials from +50 to -100 mV in 10 mV steps for 1 second. This was followed by repolarization to -100 mV for 1 second to record the tail currents.
-100 mV, a -120 mV 1 second pre-pulse was applied to completely close the hERG channels before subsequent depolarization. All of the tail currents reported in this manuscript represent dofetilide-sensitive currents. The inactivation of hERG was measured by a previously reported triple-pulse protocol5, 6. The holding potential was -80 mV. The hERG channel was first depolarized to +50 mV for 1 second. Recovery from inactivation was achieved using a short pulse (a 10 ms hyperpolarization) to -120 mV, followed by the application of test pulses from -100 to 0 mV for 1 second in 10 mV steps.
A voltage of -100 mV was selected because it was on the flat part of the inactivation-voltage relationship. The methods employed are identical to ones previously reported. […]

[1] = Conc. 50 µM, listed as MC-I-159b
[2] = Conc. 10 µM, listed as MC-I-153b
[3] = Conc. 50 µM, listed as MC-I-153b

T1 sequence (Q12809 whole entry): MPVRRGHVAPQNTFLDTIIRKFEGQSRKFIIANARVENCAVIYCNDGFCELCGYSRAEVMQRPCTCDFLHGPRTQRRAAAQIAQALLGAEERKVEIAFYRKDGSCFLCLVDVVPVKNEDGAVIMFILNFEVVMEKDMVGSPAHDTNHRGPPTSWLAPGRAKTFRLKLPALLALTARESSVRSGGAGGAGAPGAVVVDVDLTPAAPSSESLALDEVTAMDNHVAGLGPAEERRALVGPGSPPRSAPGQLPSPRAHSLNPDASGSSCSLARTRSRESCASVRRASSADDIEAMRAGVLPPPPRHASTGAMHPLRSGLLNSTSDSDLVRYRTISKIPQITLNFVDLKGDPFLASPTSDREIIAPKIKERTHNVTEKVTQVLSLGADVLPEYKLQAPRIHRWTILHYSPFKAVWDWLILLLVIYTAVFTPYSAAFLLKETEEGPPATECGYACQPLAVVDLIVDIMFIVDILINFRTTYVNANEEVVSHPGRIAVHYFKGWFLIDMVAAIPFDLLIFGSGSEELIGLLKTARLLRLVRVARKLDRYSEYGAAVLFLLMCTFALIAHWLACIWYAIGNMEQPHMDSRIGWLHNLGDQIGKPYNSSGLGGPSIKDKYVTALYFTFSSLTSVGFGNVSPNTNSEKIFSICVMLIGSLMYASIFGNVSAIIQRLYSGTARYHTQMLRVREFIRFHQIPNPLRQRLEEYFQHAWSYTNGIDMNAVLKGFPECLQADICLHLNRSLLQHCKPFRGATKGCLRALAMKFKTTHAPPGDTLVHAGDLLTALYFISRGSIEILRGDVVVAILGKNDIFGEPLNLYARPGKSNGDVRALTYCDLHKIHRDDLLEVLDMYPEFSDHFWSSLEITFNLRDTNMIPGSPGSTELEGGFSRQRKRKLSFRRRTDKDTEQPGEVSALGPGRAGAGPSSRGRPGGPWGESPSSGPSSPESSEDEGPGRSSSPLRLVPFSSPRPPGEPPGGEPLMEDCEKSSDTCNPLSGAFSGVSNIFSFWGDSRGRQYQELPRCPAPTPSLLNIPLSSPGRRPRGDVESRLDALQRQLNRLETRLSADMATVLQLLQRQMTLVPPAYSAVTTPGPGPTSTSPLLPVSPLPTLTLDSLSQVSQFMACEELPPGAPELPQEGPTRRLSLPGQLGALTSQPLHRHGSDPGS

Compound	Deactivation Δλ/λcon (Conc. 50 µM)	Activation V1/2 (mV) (Conc. 50 µM)	Inactivation ΔV0.3 (Conc. 50 µM)	Amplitude I/Icon (Conc. 50 µM)	Deactivation Δλ/λcon (Conc. 20 µM)	Activation V1/2 (mV) (Conc. 20 µM)	Inactivation ΔV0.3 (Conc. 20 µM)	Amplitude I/Icon (Conc. 20 µM)	other results
O=C1NC(=O)c2cc(C(F)(F)F)ccc21 [Compound 23]	0.2±0.1	−2.3±1.3	−2±1.2	1.0±0.01	–	–	–	–	–
O=C(Nc1ccccc1)C1C(=O)Nc2ccccc21 (stereo not drawn) [Compound 24]	0.2±0.2	−2.3±0.9	8±0	0.8±0.03	–	–	–	–	–
C[C@H](NCc1ccccc1)C(=O)NC(=O)Nc1cc(C(F)(F)F)ccc1O [Compound 2]	–	–	–	–	0.6±0.4	−14.5±5.5	−21±0.0	0.4±0.02	–
C[C@H](NCc1ccc(F)cc1)C(=O)NC(=O)Nc1cc(C(F)(F)F)ccc1O [Compound 3]	–	–	–	–	1.7±0.3	−17.3±0.3	−7.5±4.5	0.6±0.14	Deactivation Δλ/λcon (Conc. 2 µM): 1.7±0.3; Activation V1/2 (mV) (Conc. 2 µM): −17.3±0.3 mV; Inactivation ΔV0.3 (Conc. 2 µM): −7.5±4.5
COCOc1ccc(C(F)(F)F)cc1NC(=O)NC(=O)[C@H](C)NCc1ccc(F)cc1 [Compound 8]	–	–	–	–	−0.1±0.04	−12.5±2.5	−4±8	0.1±0.0	–
COCOc1ccc(C(F)(F)F)cc1NC(=O)NC(=O)[C@H](C)NCc1ccc(C(F)(F)F)cc1 [Compound 10]	–	–	–	–	0.5±0.03	−13.7±3.2	−12.3±3.4	0.4±0.02	–
COCOc1ccc(C(F)(F)F)cc1NC(=O)Oc1ccccc1 [Compound 22]	−0.2±0.09	−1.7±2.3	0±0	0.9±0.04	–	–	–	–	–
C[C@H](NS(=O)(=O)c1ccc(N)cc1)C(=O)NC(=O)Nc1cc(C(F)(F)F)ccc1O [Compound 13]	0.5±0.1	−2.5±3.0	+10±0.6	1±0.03	0.3±0.1	−5±3	+8±0.4	1.0	pharmacologic activity (1 µM): no pharmacologic activity; Activation V1/2 (mV) (Conc. 2 µM): −2±3 mV; Amplitude I/Icon (Conc. 2 µM): 1.0; Inactivation ΔV0.3 (Conc. 20 µM, listed as MC-I-159b): significantly shifted voltage-dependence of inactivation to depolarized potentials; Inactivation ΔV0.3 [1]: shifted the voltage-dependence of inactivation to depolarized potentials; Amplitude I/Icon [1]: did not produce pharmacological block
COCOc1ccc(C(F)(F)F)cc1NC(=O)NC(=O)[C@H](C)NC(=O)c1ccccc1 [Compound 11]	–	–	–	–	−0.1±0.2	−12.7±2.7	−1.5±1.5	0.6±0.04	–
CN(C(=O)c1cc(C(F)(F)F)ccc1Cl)c1ccccc1 [Compound 19]	−0.2±0.08	1±3	−2±1	0.7±0.06	–	–	–	–	Activation V1/2 (mV) (Conc. 5 µM): 0 mV; Amplitude I/Icon (Conc. 5 µM): 0.9±0.1
C[C@H](NC(=O)c1ccccc1)C(=O)NC(=O)Nc1cc(C(F)(F)F)ccc1O [Compound 6]	–	–	–	–	0.8±0.1	−3.7±0.7	−2.5±1.5	0.7±0.02	–
COCOc1ccc(C(F)(F)F)cc1NC(=O)NC(=O)[C@H](C)N(Cc1ccccc1)Cc1ccccc1 [Compound 17]	0.25±0.18	−2±0	+4±0	0.95±0.03	–	–	–	–	Deactivation Δλ/λcon (Conc. 10 µM): 0.07±0.08; Activation V1/2 (mV) (Conc. 10 µM): −5±0.6 mV; Inactivation ΔV0.3 (Conc. 10 µM): −1±0.6
COCOc1ccc(C(F)(F)F)cc1NC(=O)NC(=O)[C@H](C)NCc1ccc(Br)cc1 [Compound 9]	–	–	–	–	−0.1±0.1	−9.1±2.1	−3.5±1.5	0.5±0.1	–
COCOc1ccc(C(F)(F)F)cc1NC(=O)NC(=O)[C@H](C)N [Compound 16]	0.003±0.14	−19±3	−27±2	0.3±0.02	–	–	–	–	Deactivation Δλ/λcon (Conc. 10 µM): −0.07±0.1; Activation V1/2 (mV) (Conc. 10 µM): −7±2 mV; Activation V1/2 (mV) [2]: shifts V1/2 of activation to hyperpolarized potentials; Amplitude I/Icon (Conc. 10 µM): 0.6±0.06; Amplitude I/Icon [2]: 0.6; Activation V1/2 (mV) [3]: left shifted the V1/2 of activation; Amplitude I/Icon [3]: 0.3
COCOc1ccc(C(F)(F)F)cc1NC(=O)NC(=O)[C@H](C)NS(=O)(=O)c1ccc([N+](=O)[O-])cc1 [Compound 15]	–	–	–	–	–	–	–	–	Deactivation Δλ/λcon (Conc. 10 µM): −0.1±0.1; Activation V1/2 (mV) (Conc. 10 µM): −3±3 mV; Inactivation ΔV0.3 (Conc. 10 µM): −11±2; Amplitude I/Icon (Conc. 10 µM): 0.7±0.12; Deactivation Δλ/λcon (Conc. 30 µM): −0.01±0.07; Activation V1/2 (mV) (Conc. 30 µM): 0±0 mV; Inactivation ΔV0.3 (Conc. 30 µM): −10±0; Amplitude I/Icon (Conc. 30 µM): 0.5±0.04
COCOc1ccc(C(F)(F)F)cc1N [Compound 20]	–	–	–	–	–	–	–	–	Deactivation Δλ/λcon (Conc. 5 µM): 0.03±0.01; Activation V1/2 (mV) (Conc. 5 µM): −2.5±0.5 mV; Inactivation ΔV0.3 (Conc. 5 µM): 0±1; Deactivation Δλ/λcon (Conc. 100 µM): −0.06±0.2; Activation V1/2 (mV) (Conc. 100 µM): −3.3±1.3 mV; Inactivation ΔV0.3 (Conc. 100 µM): −1±0; Amplitude I/Icon (Conc. 100 µM): 0.9±0.04
C[C@H](NC(=O)c1ccc([N+](=O)[O-])cc1)C(=O)NC(=O)Nc1cc(C(F)(F)F)ccc1O [Compound 7]	–	–	–	–	0.6±0.3	−7±1.1	−3.5±4.5	0.6±0.1	–
CN(C(=O)c1cccc(C(F)(F)F)c1)c1ccccc1 [Compound 18]	−0.2±0.05	3.3±0.3	−11.7±7.3	0.8±0.07	–	–	–	–	–
C[C@H](NS(=O)(=O)c1ccc([N+](=O)[O-])cc1)C(=O)NC(=O)Nc1cc(C(F)(F)F)ccc1O [Compound 14]	0.6±0.3	−7.7±3.0	2.5±3.5	0.39±0.04	–	–	–	–	Deactivation Δλ/λcon (Conc. 2 µM): 0.4±; Activation V1/2 (mV) (Conc. 2 µM): −3±0.02 mV; Amplitude I/Icon (Conc. 2 µM): 0.93±0.01; Amplitude I/Icon (Conc. 50 µM, listed as MC-I-169b): significantly more pharmacologic block
COCOc1ccc(C(F)(F)F)cc1NC(N)=O [Compound 21]	0.02±0.1	−1.3±2.4	0.7±3.7	0.9±0.04	–	–	–	–	–
COCOc1ccc(C(F)(F)F)cc1NC(=O)NC(=O)[C@H](C)NC(=O)c1ccc([N+](=O)[O-])cc1 [Compound 12]	–	–	–	–	−0.1±0.1	−6.3±2.7	−7.3±1.9	0.6±0.19	–
